Measurements reported in article PMC11182235 (Frontiers in Ophthalmology, 2023).
“Also recorded” adds a separate entry of the source. Read-outs that look alike come from different tables or passages of the source.

Experiments:
adult porcine RGCs = conditions: cited from earlier work
isolated rat RGCs = conditions: cited from earlier work
RGC = conditions: in vivo; cited from earlier work
[1] = test system: isolated retinal ganglion cells; type: cell-based, porcine
[2] = test system: isolated retinal ganglion cells; conditions: cited from earlier work
α3 nAChR = α3 nAChR (Sus scrofa, UniProt A0A287A7Z4); type: binding, porcine; conditions: read-out: Mean Ki against [3H]-epibatidine
α4β2 nicotinic receptors = conditions: cited from earlier work
α7 nicotinic receptors = conditions: cited from earlier work
α7 nAChR = α7 nAChR (Sus scrofa, UniProt F1SNR6); assay: biochemical; type: binding, porcine
α4 nAChR = α4 nAChR (Sus scrofa, UniProt A0A286ZKF4+A0A287BFD8); type: binding, porcine; conditions: for Ki: read-out: Mean Ki against [3H]-cytisine
retinal ganglion cells = type: cell-based, rat
α7 nAChRs = conditions: cited from earlier work
α3β4 receptors = conditions: cited from earlier work
[3] = rat retinal slice, RGCs, fluo-4 fluorescence, n = 4

Sequence of α4 nAChR (A0A286ZKF4 31-595 limits assumed): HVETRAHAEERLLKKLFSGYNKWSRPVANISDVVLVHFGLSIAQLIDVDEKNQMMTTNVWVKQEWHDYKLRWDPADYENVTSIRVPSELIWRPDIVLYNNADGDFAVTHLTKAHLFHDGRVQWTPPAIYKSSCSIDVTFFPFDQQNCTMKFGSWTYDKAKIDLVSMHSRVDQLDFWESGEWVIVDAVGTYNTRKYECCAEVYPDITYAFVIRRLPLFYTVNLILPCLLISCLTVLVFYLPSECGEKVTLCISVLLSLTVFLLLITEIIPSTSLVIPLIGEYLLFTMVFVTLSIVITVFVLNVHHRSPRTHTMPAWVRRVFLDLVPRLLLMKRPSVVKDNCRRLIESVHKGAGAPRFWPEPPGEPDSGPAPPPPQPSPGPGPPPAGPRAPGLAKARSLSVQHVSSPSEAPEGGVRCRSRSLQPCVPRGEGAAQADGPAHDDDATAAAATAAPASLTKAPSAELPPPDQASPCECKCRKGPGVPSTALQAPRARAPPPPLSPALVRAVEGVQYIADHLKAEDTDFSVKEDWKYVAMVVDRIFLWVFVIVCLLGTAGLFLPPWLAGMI
Sequence of α4 nAChR (A0A287BFD8 26-502 limits assumed): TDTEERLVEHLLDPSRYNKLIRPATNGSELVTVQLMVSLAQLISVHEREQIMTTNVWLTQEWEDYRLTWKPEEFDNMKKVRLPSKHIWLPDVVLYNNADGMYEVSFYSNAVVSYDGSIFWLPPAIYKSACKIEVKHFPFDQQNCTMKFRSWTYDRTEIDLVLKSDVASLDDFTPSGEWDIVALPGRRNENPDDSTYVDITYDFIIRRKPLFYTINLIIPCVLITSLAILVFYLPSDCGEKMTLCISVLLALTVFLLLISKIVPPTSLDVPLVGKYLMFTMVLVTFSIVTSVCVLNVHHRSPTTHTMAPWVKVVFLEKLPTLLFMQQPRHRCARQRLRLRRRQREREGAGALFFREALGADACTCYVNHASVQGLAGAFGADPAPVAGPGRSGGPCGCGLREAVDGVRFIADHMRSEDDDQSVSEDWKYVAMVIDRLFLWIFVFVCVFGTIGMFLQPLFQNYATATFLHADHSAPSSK
Sequence of α7 nAChR (F1SNR6 20-499 limits assumed): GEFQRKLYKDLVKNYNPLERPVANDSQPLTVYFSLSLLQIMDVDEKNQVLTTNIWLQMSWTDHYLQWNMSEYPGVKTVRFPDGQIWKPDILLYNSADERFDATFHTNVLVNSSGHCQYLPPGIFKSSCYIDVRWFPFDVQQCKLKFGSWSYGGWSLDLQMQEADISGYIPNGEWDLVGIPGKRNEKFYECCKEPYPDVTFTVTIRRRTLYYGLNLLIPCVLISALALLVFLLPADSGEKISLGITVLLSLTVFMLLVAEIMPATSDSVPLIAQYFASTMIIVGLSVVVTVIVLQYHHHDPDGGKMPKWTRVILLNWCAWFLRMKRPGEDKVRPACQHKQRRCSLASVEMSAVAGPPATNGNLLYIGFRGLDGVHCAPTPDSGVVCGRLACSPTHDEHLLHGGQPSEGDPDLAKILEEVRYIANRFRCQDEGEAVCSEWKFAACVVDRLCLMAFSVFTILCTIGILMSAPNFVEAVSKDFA
Sequence of α3 nAChR (A0A287A7Z4 30-503 limits assumed): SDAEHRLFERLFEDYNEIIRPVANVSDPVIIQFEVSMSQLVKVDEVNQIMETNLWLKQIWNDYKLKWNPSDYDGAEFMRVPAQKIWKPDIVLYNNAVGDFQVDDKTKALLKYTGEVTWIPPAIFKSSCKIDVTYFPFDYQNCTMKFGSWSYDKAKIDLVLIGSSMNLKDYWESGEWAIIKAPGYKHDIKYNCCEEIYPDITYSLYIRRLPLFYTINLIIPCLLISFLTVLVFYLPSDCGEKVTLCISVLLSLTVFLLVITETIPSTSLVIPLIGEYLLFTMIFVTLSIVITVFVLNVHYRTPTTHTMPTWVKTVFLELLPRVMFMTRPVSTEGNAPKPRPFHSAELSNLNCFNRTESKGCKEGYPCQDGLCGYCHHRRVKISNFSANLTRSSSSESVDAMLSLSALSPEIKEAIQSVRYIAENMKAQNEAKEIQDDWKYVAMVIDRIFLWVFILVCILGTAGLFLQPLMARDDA

CC(=O)OCC[N+](C)(C)C [ACh, acetylcholine]
Reduction of glutamate-induced excitotoxicity (adult porcine RGCs): significantly reduced

CCN1C[C@]2(COC(=O)c3ccccc3N3C(=O)C[C@H](C)C3=O)CC[C@H](OC)[C@@]34[C@@H]5C[C@H]6[C@H](OC)[C@@H]5[C@](O)(C[C@@H]6OC)[C@@](O)([C@@H](OC)[C@H]23)[C@@H]14 [MLA, Methyllycaconitine]
Block of neuroprotective effect of 100 nM PNU-282987 against glutamate-induced toxicity (isolated rat RGCs): blocked; also recorded: inhibited the protective effects

O=C(N[C@H]1CN2CCC1CC2)c1ccc(Cl)cc1 [PNU-282987]
RGC cell numbers in the intact rat (RGC): increase in RGC cell numbers | Neuroprotection against glutamate-induced excitotoxicity [1]: effective in the low-to-mid nanomolar concentration range | Cell numbers in isolated rat RGC culture relative to control (isolated rat RGCs): increased numbers of cells | Cell numbers in porcine retinal cell culture relative to control [2]: increased numbers of cells

C[N+](C)(C)CCO [choline]
Reduction of glutamate-induced excitotoxicity (adult porcine RGCs): significantly reduced

Clc1ccc(C2CC3CCC2N3)cn1 (centres unmarked) [epibatidine]
Ki (α3 nAChR): 0.7 ± 0.05 nM | Ki (α4β2 nicotinic receptors): 0.02 nM | Ki (α7 nicotinic receptors): 233 nM | inhibition at 100 µM (α7 nAChR; read-out: Percent inhibition of [125I]-α-BTX binding): 3% | Ki (α4 nAChR): 0.1 ± 0.03 nM | Threshold dose, calcium response (retinal ganglion cells): 1 nM

CN1CCC[C@H]1c1cccnc1 [nicotine]
Ki (α3 nAChR): 220 ± 0.6 nM | Concentration at which toxicity reported (adult porcine RGCs): 50 µM | Reduction of glutamate-induced excitotoxicity (adult porcine RGCs): significantly reduced | Ki (α7 nAChR): 300000 ± 22000 nM | Ki (α4 nAChR): 20 ± 0.7 nM | Saturating dose, calcium response (retinal ganglion cells; [3]): 20 µM | Threshold dose, calcium response (retinal ganglion cells; [3]): 2000 nM | Protection against glutamate-induced excitotoxicity at higher levels ([1]; additional preliminary and published experiments ([47])): drop-off in protection at higher levels

α-Bungarotoxin [α-BTX]
Ki (α7 nAChR; read-out: Mean Ki against [125I]-α-BTX): 170 ± 40 nM | Percent inhibition of [3H]-cytisine binding (α4 nAChR; 0.1 µM): 3% ± 3 | IC50 (α7 nAChRs): 1.6 nM | Effect of antagonist on neuroprotection by PNU-282987 [1]: reduction in the neuroprotective effects | IC50 (α3β4 receptors): > 3000 nM
